US9096832B2, “Differentiation of human embryonic stem cells” (LifeScan, Inc., priority 2007, dated 2015)
Where “and” joins values, the source holds several entries; their conditions need not be identical. Equal values may be shown once.

Assays:
[1] = test system: human embryonic stem cell line H9; test: Cytokine array (RayBiotech) of cell lysates and conditioned media, Activin A +/- Wnt3a (Table VII); type: cell-based; design: Angiogenin / BDNF / BMP-4 / BMP-6 / CK beta 8-1 / Eotaxin-3 / Flt-3 Ligand / Fractalkine / GCP-2 / GDNF / GM-CSF / I-309 / IFN-gamma / IGFBP-1 / IGFBP-2 / IGFBP-4 / IL-10 / IL-13 / IL-15 / IL-1alpha / IL-1beta / IL-1ra / IL-3 / IL-5 / Leptin / MCP-1 / MIP-1-delta / NT-3 / RANTES / SCF / TGF-beta 1 / TNF-beta / Acrp30 / AgRP / AxI / bFGF: unit not given here
Protocol: At passage 54, cells were differentiated in the presence of 100 ng/mlActivinA+/−10 ng/mlWnt3a for 2 days in 0.5% FBS DMEM/F12. […]
Cell lysates were prepared from cells of each treatment group, with a mammalian cell lysis kit (Sigma-Aldrich,MO). Conditioned media from each treatment group was collected and concentrated. Cytokine array analysis was completed using Cytokine Array panels provided by RayBiotech, GA (http://www.raybiotech.com/). […] For each panel, positive and negative controls are also included.

[2] = test system: human embryonic stem cell line H9; test: Cells from […] differentiated on MEFs: role of Wnt-3a (real-time PCR, FACS); type: cell-based
Protocol: Cells from the human embryonic stem cell line H9 cultured on […]™ for at least five passages were seeded onto MEF feeders in ES media.
At day 3 and 5, the cultures were analyzed by real time PCR for SOX-17, SOX-7, Alpha-fetal protein (AFP), CXCR4, Brychyury (Bry), gooscecoid (GSC), HNF-3 beta, GATA4, hTERT and Oct4. AFP and SOX-7 are regarded as visceral endoderm markers while GATA4, HNF-3beta and SOX-17 represent definite endoderm markers and GSC, Bry, and CXCR4 represent markers of primitive streak. hTERT and Oct-4 are markers for self renewal and pluripotency respectively. FACS analysis was also performed at day 3 and 5.

[3] = Cell conditioned media, H9 day 5, samples 1,2
[4] = Cell lysate, H9 day 5, samples 1,2

## Wnt-3a
[1]; [3]
  Acrp30: 2,795.71 and 2,302.99
  AgRP: 651.26 and 482.21
  Amphiregulin: 619.07 and 782.60
  Angiogenin: 57,442.48 and 54,969.04
  Angiopoietin-2: 65,959.24 and 71,664.21
  AxI: 610.40 and 748.34
  BDNF: 770.08 and 715.86
  BLC: 337.12 and 249.80
  BMP-6: 985.70 and 670.60
  CK beta 8-1: 42.78 and 75.44
  CNTF: 787.19 and 541.51
  EGF: 23,331.57 and 22,768.53
  Eotaxin-2: 2,156.21 and 1,445.14
  Eotaxin-3: 2,140.81 and 1,480.35
  FGF-6: 3,283.94 and 2,519.78
  Flt-3 Ligand: 511.67 and 792.98
  Fractalkine: 359.37 and 367.15
  GCP-2: 451.78 and 362.12
  GDNF: 443.22 and 509.66
  GM-CSF: 1,808.82 and 1,446.82
  I-309: 318.30 and 288.36
  IFN-gamma: 1,238.97 and 1,435.08
  IGF-I: 254.98 and 187.77
  IGFBP-1: 227.60 and 155.91
  IGFBP-2: 42,215.53 and 43,934.33
  IGFBP-4: 18,988.34 and 13,380.14
  IL-1alpha: 3,999.26 and 3,545.79
  IL-1beta: 316.59 and 278.30
  IL-1ra: 354.23 and 581.75
  IL-2: 758.10 and 881.84
  IL-3: 11,345.78 and 12,174.73
  IL-4: 804.30 and 673.95
  IL-5: 2,120.27 and 1,713.38
  IL-6: 9,774.82 and 9,991.93
  IL-10: 1,625.71 and 1,129.96
  IL-13: 2,522.42 and 1,807.27
  IL-15: 2,495.04 and 1,981.62
  IL-16: 436.38 and 405.71
  LIGHT: 1,346.78 and 1,108.17
  Leptin: 7,238.71 and 4,886.99
  M-CSF: 740.98 and 684.01
  MCP-1: 2,015.89 and 1,567.53
  MCP-2: 694.78 and 694.07
  MCP-3: 701.62 and 583.42
  MCP-4: 231.02 and 276.62
  MIP-1-delta: 474.02 and 291.71
  MIP-3-alpha: 208.78 and 184.41
  NAP-2: 371.35 and 343.68
  NT-3: 571.57 and 427.51
  PARC: 474.02 and 363.80
  PDGF-BB: 2,635.37 and 2,005.09
  RANTES: 682.80 and 855.01
  SCF: 1,394.69 and 2,155.98
  SDF-1: 326.85 and 616.95
  TGF-beta 1: 1,827.65 and 1,849.18
  TGF-beta 3: 294.34 and 343.68
  TNF-alpha: 2,609.70 and 2,167.71
  TNF-beta: 1,701.01 and 1,637.94
  bFGF: 1,226.99 and 1,241.09
[1]; [4]
  Acrp30: 601.61 and 690.66
  AgRP: 77.82 and 89.00
  Angiogenin: 619.40 and 750.85
  AxI: 88.59 and 139.03
  BDNF: 763.51 and 951.45
  BLC: 742.24 and 476.36
  BMP-4: 348.44 and 304.48
  BMP-6: 571.23 and 641.05
  CK beta 8-1: 22.48 and 21.54
  CNTF: 1,382.51 and 1,060.82
  EGF: 742.24 and 984.39
  Eotaxin: 301.87 and 253.80
  Eotaxin-3: 934.12 and 847.56
  Flt-3 Ligand: 857.45 and 795.19
  Fractalkine: 792.02 and 456.51
  GCP-2: 593.71 and 538.86
  GDNF: 436.75 and 444.68
  GM-CSF: 1,343.17 and 1,161.75
  I-309: 708.52 and 743.25
  IFN-gamma: 1,202.67 and 1,037.60
  IGFBP-1: 59.41 and 85.73
  IGFBP-2: 2,671.90 and 2,414.72
  IGFBP-4: 4,459.85 and 4,173.19
  IL-1alpha: 1,612.93 and 1,421.89
  IL-1beta: 352.05 and 312.08
  IL-1ra: 302.68 and 198.48
  IL-3: 2,119.94 and 1,497.48
  IL-4: 625.42 and 638.94
  IL-5: 1,245.23 and 1,167.24
  IL-10: 1,222.75 and 1,096.30
  IL-13: 1,486.89 and 1,407.96
  IL-15: 1,677.16 and 1,601.79
  IL-16: 651.11 and 668.50
  Leptin: 1,234.39 and 1,091.65
  M-CSF: 852.63 and 867.83
  MCP-1: 1,022.03 and 1,076.03
  MCP-3: 1,184.61 and 1,255.50
  MCP-4: 1,380.51 and 1,606.86
  MDC: 269.36 and 280.41
  MIG: 1,113.16 and 1,137.26
  MIP-1-delta: 491.75 and 322.22
  MIP-3-alpha: 1,602.09 and 1,399.93
  NT-3: 316.73 and 275.76
  PARC: 352.85 and 353.04
  PDGF-BB: 517.84 and 597.56
  RANTES: 724.98 and 637.25
  SCF: 1,152.50 and 1,021.13
  TARC: 372.93 and 343.33
  TGF-beta 1: 1,426.67 and 1,240.30
  TNF-alpha: 2,851.74 and 1,285.91
  TNF-beta: 1,049.33 and 1,026.62
  bFGF: 11,722.95 and 21,398.52
[1]; cell conditioned media
  Angiogenin, IGFBP-1 and EGF: Noticeable upregulation
[1]; cell lysates
  proteins including IGFBP-1, TGFbeta-1 and TGFbeta-3: upregulated
[2]
  role in differentiation of hES cells cultured on MEFs to definitive endoderm: does not appear to play a significant role
[2]; Wnt-3a added to 100 ng/ml activin A
  AFP expression: increase in the expression of AFP that increases over time
